Non-standard residues stand in square brackets, D forms with d. Residues, ends and D or L forms follow the SMILES beside them.
What was measured:
[1] = in vitro; assay type: in vitro ADME; conditions: human, plasma
Procedure: A stock solution of 200 μg/ml of peptide in PBS was diluted into 1.5 ml of human plasma or PBS to achieve a final concentration of 10 μg/ml. Of this solution, 50 μl was then dispensed into 200 μl Max Recovery tubes (Axygen Scientific) in triplicate for each time point needed in the study. The tubes were incubated at 37° C. and at the appropriate time point, they were removed from the incubator and 150 μl of extraction solution (75% acetonitrile/25% water+2% formic acid) was added. The tubes were vortexed for 15 sec and then centrifuged at 11,000 RPM for 5 mins at 4° C. Then, 100 μl of the supernatant was transferred into HPLC vials for analysis.
A fixed mobile phase was used so that all of the different charged species of peptide would elute at the same time, allowing a mass measurement of non-degraded material. Injection volume: 10 μl; Column: Phenomenex Aqua C18 5 μM 150 mm×4.6 mm; Flow: 0.8 ml/min; 85% Mobile phase A: 4% formic acid in nanopure water; 15% Mobile phase B: acetonitrile; RT: 1.3 minutes; Stop time: 3.0 minutes. Mass Spectrometer: MS-03 LC/MSD Trap XCT Ultra.

[2] = in vivo; conditions: male, Sprague-Dawley, rat, iv, 3 mg/kg
Procedure: Male Sprague-Dawley rats (276-310 g) were dosed with peptide by i.v injection via the jugular vein. The calculated dose for each animal was 3 mg/kg of body weight and each isoflurane anaesthetised animal received dosing volumes of 0.1 ml/100 g of body weight of a 3 mg/ml solution. The remaining dosing solutions were subjected to a similar protocol as the solutions that were administered to the animals and were collected pre-labeled Maxymum Recovery (Axygen Scientific) low binding tubes, ready for quantification. Blood samples (0.2 ml) were collected just prior to dosing (pre-dose) and at various time points post-dosing according to the experimental schedule. Blood samples were collected from the jugular vein from the anaesthetized and transferred into 0.5 ml pre-labeled EDTA micro-centrifuge tubes and placed on ice. The tubes were then centrifuged for 5 mins at 3,000 RPM in a bench top microcentrifuge (4° C.). The plasma was transferred to pre-labeled 1.7 ml tubes, stored in a −80° C. freezer prior to analysis by LC-MS.
Analysis: Sample Preparation: 50 μl of plasma was added to 150 μl of precipitating solvent (75% acetonitrile/25% water+2% formic acid) and vortexed for 15 sec. The solution was centrifuged at 11,000 rpm at 4° C. for 5 mins. 100 μl of the supernatant was transferred to a HPLC vial for quantification. […]

[3] = tested on: primary cortical neuronal cultures; test: Glutamate excitotoxicity in primary cortical neuronal cultures, neuronal viability by MTS assay; assay type: cell-based, rat; conditions: Sprague-Dawley, rat, 18 h
Procedure: Neurons were resuspended in Neurobasal (NB; Invitrogen) containing 2% B27 supplement (B27; Invitrogen). Before seeding, culture vessels comprising either a 96-well plastic plate or 24-well plastic plate with 13 mm glass coverslips (ProSciTech, Australia), were coated with poly-D-lysine (50 μg/mL; 70-150K; Sigma) and incubated overnight at room temperature. […] Neurons were plated to obtain approximately 10,000 viable neurons for each well of a 96-well plate, or 200,000 viable neurons per well of a 24-well plate, on day in vitro (DIV) […]. […] On DIV 4, one third of the culture medium was removed and replaced with fresh NB/2% B27 containing the mitotic inhibitor, cytosine arabinofuranoside (Sigma) at 1 μM concentration. On DIV 8, one half of the culture medium was replaced with NB/2% B27.
To induce glutamate excitotoxicity in the cortical neuronal cultures (96-well plate format), 50 μl of conditioned media containing 200 μM glutamate was added to culture wells containing 50 μl conditioned media (100 μM final glutamate concentration). Cultures were incubated at 37° C. in a CO2 incubator for 5 minutes, after which time the media was replaced with 100 μl of 50% NB/2% N2 and 50% balance salt solution (NB/N2:BSS).
Untreated and glutamate-treated control samples received media additions with and without glutamate respectively.
Eighteen hours after glutamate exposure, neuronal cultures were examined by light microscopy for qualitative assessment of neuronal damage. Neuronal viability was quantitatively measured by 3-(4,5,dimethyliazol-2-yl)-5-(3-carboxymethoxy-phenyl)-2-(4-sulfophenyl)-2H-tetrazolium salt (MTS) assay (Promega, Australia). The MTS assay measures the mitochondrial conversion of the tetrazolium salt to a water-soluble brown formazan salt, which is detected spectrophotometrically at 495 nm. MTS absorbance data was converted to reflect proportional cell viability relative to both the untreated and glutamate treated controls. […] All assays were performed with quadruplicate sister neuronal cultures repeated a minimum of four times independently.

[4] = rabbit blood; cited from earlier work

Row | half-life at 10 μg/ml [1] | half-life [2] | Compound | neuronal viability following glutamate excitotoxicity ([3]; 5 μM) | neuronal viability following glutamate excitotoxicity ([3]; 1 μM) | in vivo half life [4]
1 | > 12 h | 0.583 h | CC[C@@H](C)[C@@H](NC(=O)[C@@H](CCC(=O)O)NC(=O)[C@@H](CO)NC(=O)[C@@H](CO)NC(=O)[C@@H](CO)NC(=O)[C@@H](CCCCN)NC(=O)[C@@H](CCCNC(=N)N)NC(=O)[C@@H](CCC(=O)O)NC(=O)[C@H](N)CCCNC(=N)N)C(=O)NCC(=O)NCC(=O)N[C@H](CO)C(=O)N[C@H](CCCNC(=N)N)C(=O)N[C@@H](C(=O)N[C@H](CO)C(=O)N[C@H](CCC(N)=O)C(=O)N[C@H](Cc1ccc(O)cc1)C(=O)N[C@H](C)C(=O)NCC(=O)N[C@H](CCCNC(=N)N)C(=O)N[C@H](CCCNC(=N)N)C(=O)N[C@H](CCCNC(=N)N)C(=O)N[C@H](CCC(N)=O)C(=O)N[C@H](CCCNC(=N)N)C(=O)N[C@H](CCCNC(=N)N)C(=O)N[C@H](CCCCN)C(=O)N[C@H](CCCCN)C(=O)N[C@H](CCCNC(=N)N)C(=O)NCC(=O)O)[C@H](C)CC [PYC35D-TAT] (H-[dR][dE][dR][dK][dS][dS][dS][dE][dI]GG[dS][dR][dI][dS][dQ][dY][dA]G[dR][dR][dR][dQ][dR][dR][dK][dK][dR]G-OH; N-terminus and C-terminus assumed) | 59% |  | 
2 | > 12 h | 1.67 h | CC[C@@H](C)[C@@H](NC(=O)[C@@H](CCCCN)NC(=O)[C@H]1CCCN1)C(=O)N[C@H](CO)C(=O)N[C@H](CCC(N)=O)C(=O)N[C@H](Cc1ccc(O)cc1)C(=O)NCC(=O)N[C@H](CCC(N)=O)C(=O)N[C@H](CCCNC(=N)N)C(=O)N[C@H](CCCNC(=N)N)C(=O)N[C@H](CCCNC(=N)N)C(=O)NCC(=O)N[C@H](CCC(N)=O)C(=O)N[C@H](CC(C)C)C(=O)NCC(=O)NCC(=O)N[C@H](CCCNC(=N)N)C(=O)N[C@H](CCCNC(=N)N)C(=O)N[C@H](CCCNC(=N)N)C(=O)N[C@H](CCC(N)=O)C(=O)N[C@H](CCCNC(=N)N)C(=O)N[C@H](CCCNC(=N)N)C(=O)N[C@H](CCCCN)C(=O)N[C@H](CCCCN)C(=O)N[C@H](CCCNC(=N)N)C(=O)NCC(=O)O [PYC36D-TAT] (H-[dP][dK][dI][dS][dQ][dY]G[dQ][dR][dR][dR]G[dQ][dL]GG[dR][dR][dR][dQ][dR][dR][dK][dK][dR]G-OH; N-terminus and C-terminus assumed) | 82% | 44% | 
3 |  |  | tissue plasminogen activator [tPA] |  |  | a few minutes
